Data: ChEMBL document CHEMBL1909569 (Bioorg Med Chem Lett, 2011)
In brackets after ≈: the same amount, converted by molar mass.

Experiments:
[1] = tested on: Mycobacterium tuberculosis; assay: Antimicrobial activity against replicating Mycobacterium tuberculosis after 8 days by micro plate alamar blue assay; type: functional; details: 192 h
[2] = tested on: Mycobacterium tuberculosis; assay: Antimicrobial activity against non-replicating Mycobacterium tuberculosis after 11 days by luminescence based low oxygen recovery assay; type: functional; details: 264 h
[3] = biological target: T1, Nuclear receptor subfamily 1 group I member 2 (Homo sapiens, UniProt O75469); assay: (§1) Activation of human PXR in DPX2 cells after 24 hrs by microplate reader relative to control; type: ADME, cell-based
T1 sequence (O75469 whole entry): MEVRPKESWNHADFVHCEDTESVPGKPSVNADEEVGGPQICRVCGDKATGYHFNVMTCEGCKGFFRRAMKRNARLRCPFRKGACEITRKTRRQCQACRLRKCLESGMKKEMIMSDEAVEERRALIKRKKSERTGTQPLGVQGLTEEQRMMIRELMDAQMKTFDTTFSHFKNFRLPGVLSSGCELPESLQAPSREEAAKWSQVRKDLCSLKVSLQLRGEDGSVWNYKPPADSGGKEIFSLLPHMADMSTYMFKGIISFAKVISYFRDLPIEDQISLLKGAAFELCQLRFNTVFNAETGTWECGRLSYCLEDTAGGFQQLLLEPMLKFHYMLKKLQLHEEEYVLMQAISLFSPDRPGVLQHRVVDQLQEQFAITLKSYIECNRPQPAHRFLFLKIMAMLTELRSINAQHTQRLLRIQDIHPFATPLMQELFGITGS

[4] = biological target: T2, PXR (nuclear receptor subfamily 1 group I member 2) (Homo sapiens, UniProt O75469); assay: as §1; type: ADME, cell-based; details: human, DPX2 cells; read-out: FC
T2 sequence (O75469 whole entry): T1 sequence (O75469 whole entry)

[5] = biological target: T1, Nuclear receptor subfamily 1 group I member 2; assay: Activation of human PXR in DPX2 cells up to 100 uM after 24 hrs by microplate reader relative to control; type: ADME, cell-based
Escherichia coli [6] = assay: Antimicrobial activity against Escherichia coli EC2880 mutant after 16 to 20 hrs; type: functional
Escherichia coli [7] = assay: Antimicrobial activity against wild type Escherichia coli DH5[alpha] after 16 to 20 hrs; type: functional
[8] = biological target: T3, DNA-directed RNA polymerase subunit beta (Mycobacterium tuberculosis) (UniProt P9WGY9); assay: Ratio of compound IC50 to Rifamycin S IC50 for wild type Mycobacterium tuberculosis RNA polymerase
T3 sequence (whole entry): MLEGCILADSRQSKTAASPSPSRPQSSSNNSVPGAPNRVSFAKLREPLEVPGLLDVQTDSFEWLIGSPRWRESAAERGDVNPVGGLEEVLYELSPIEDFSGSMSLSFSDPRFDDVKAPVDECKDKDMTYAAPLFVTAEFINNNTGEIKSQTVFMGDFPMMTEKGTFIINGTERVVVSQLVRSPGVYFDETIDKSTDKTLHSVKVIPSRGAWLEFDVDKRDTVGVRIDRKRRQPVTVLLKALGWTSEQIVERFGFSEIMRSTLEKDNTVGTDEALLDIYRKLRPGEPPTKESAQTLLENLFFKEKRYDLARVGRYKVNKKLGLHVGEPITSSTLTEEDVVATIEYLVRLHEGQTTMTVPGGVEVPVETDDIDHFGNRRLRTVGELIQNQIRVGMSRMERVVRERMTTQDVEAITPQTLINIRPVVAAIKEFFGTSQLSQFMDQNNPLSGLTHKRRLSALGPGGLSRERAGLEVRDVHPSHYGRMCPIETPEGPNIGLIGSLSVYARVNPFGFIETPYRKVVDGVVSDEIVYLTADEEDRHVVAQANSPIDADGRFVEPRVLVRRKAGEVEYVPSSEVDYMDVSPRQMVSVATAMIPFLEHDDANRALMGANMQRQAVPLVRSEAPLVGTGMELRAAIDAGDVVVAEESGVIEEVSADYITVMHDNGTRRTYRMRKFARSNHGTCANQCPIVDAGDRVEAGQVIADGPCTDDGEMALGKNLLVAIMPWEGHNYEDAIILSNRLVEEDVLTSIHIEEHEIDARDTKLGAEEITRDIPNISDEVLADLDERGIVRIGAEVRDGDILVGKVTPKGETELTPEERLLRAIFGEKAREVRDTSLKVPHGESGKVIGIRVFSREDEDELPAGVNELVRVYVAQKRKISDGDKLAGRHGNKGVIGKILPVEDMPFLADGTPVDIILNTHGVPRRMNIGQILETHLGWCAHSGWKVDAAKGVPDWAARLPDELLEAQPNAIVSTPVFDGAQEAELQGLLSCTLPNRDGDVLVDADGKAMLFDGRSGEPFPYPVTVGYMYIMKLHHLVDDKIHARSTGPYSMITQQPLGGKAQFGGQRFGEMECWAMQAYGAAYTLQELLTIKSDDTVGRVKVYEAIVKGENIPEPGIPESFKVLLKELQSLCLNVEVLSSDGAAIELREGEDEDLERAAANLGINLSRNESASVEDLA

[9] = biological target: T3, DNA-directed RNA polymerase subunit beta (Mycobacterium tuberculosis); assay: (§2) Inhibition of wild type Mycobacterium tuberculosis RNA polymerase after 10 mins using ribo green staining by rolling circle transcription assay; parameters: unit not given here
[10] = biological target: T4, DNA-directed RNA polymerase subunit beta (Mycobacterium tuberculosis, UniProt P9WGY9); assay: as §2
T4 sequence (P9WGY9 whole entry): T3 sequence (whole entry)

Escherichia coli [11] = assay: Antimicrobial activity against wild type Escherichia coli TG2 after 16 to 20 hrs; type: functional

Compound	MIC90 [1]	MIC90 [2]	EC50 [3]	fold induction at 24 h [4]	EC50 [5]	MIC90 (Escherichia coli [6])	MIC90 (Escherichia coli [7])	Ratio IC50 [8]	logIC50 [9]	IC50 [10]	MIC90 (Escherichia coli [11])
CNc1c(C)c2c3c4c1C(=O)C(=C(/C=N/N1CCN(C)CC1)C4=O)NC(=O)/C(C)=C\C=C\[C@H](C)[C@H](O)[C@@H](C)[C@@H](O)[C@@H](C)[C@H](OC(C)=O)[C@H](C)[C@@H](OC)/C=C/O[C@@](C)(O2)C3=O	3.64 µM (≈ 3.04 µg/mL)	> 19.2 µM	2.1 µM	6.9	–	–	–	–	–	–	–
CO[C@H]1/C=C/O[C@@]2(C)Oc3c(c4c5c(nn(C)c5c3C)C(=C(/C=N/N3CCN(C)CC3)C4=O)NC(=O)/C(C)=C\C=C\[C@H](C)[C@H](O)[C@@H](C)[C@@H](O)[C@@H](C)[C@H](OC(C)=O)[C@@H]1C)C2=O	> 4.8 µM	> 19.3 µM	–	–	Not Active	–	–	–	–	–	–
CO[C@H]1/C=C/O[C@@]2(C)Oc3c(C)c(OS(=O)(=O)c4ccc(C)cc4)c4c(c3C2=O)C(=O)C=C(NC(=O)/C(C)=C\C=C\[C@H](C)[C@H](O)[C@@H](C)[C@@H](O)[C@@H](C)[C@H](OC(C)=O)[C@@H]1C)C4=O	0.2 µM (≈ 0.17 µg/mL)	3 µM (≈ 2.55 µg/mL)	–	–	–	3.12 µM (≈ 2.66 µg/mL)	> 100 µM	2	-1.68	21 nM	> 100 µM
CNc1c(C)c2c3c4c(O)c(/C=N/N5CCN(C)CC5)c(c(O)c14)NC(=O)/C(C)=C\C=C\[C@H](C)[C@H](O)[C@@H](C)[C@@H](O)[C@@H](C)[C@H](OC(C)=O)[C@H](C)[C@@H](OC)/C=C/O[C@@](C)(O2)C3=O	4 µM (≈ 3.34 µg/mL)	> 19.1 µM	4.1 µM	8.9	–	–	–	–	–	–	–
CO[C@H]1/C=C/O[C@@]2(C)Oc3c(C)c(O)c4c(c3C2=O)C(=O)C(/C=N/N2CCN(C)CC2)=C(NC(=O)/C(C)=C\C=C\[C@H](C)[C@H](O)[C@@H](C)[C@@H](O)[C@@H](C)[C@H](OC(C)=O)[C@@H]1C)C4=O [RIFAMPIN S]	0.07 µM (≈ 0.0575 µg/mL)	0.5 µM (≈ 0.41 µg/mL)	–	–	–	0.1 µM (≈ 0.0821 µg/mL)	25 µM (≈ 20.5 µg/mL)	–	-1.88	13 nM	12.5 µM (≈ 10.3 µg/mL)
CO[C@H]1/C=C/O[C@@]2(C)Oc3c(C)c(N)c4c(c3C2=O)C(=O)C=C(NC(=O)/C(C)=C\C=C\[C@H](C)[C@H](O)[C@@H](C)[C@@H](O)[C@@H](C)[C@H](OC(C)=O)[C@@H]1C)C4=O	1.41 µM (≈ 0.98 µg/mL)	22.2 µM (≈ 15.4 µg/mL)	–	–	–	12.5 µM (≈ 8.68 µg/mL)	> 100 µM	–	0.644	4400 nM	> 100 µM
